Results reported in patent publication US20250000834A1, “COMPOSITIONS AND METHODS FOR TARGETING GPCR FOR THE PREVENTION AND TREATMENT OF PAIN” (Duke University, priority 2021, published 2025).

Legend:
[1] = tested on: neuron-glia mixed cultures from DRG; test: IL-1β release in SGC-neuron co-cultures from DRG (ELISA); type: cell-based, mouse; conditions: 100 nM, cells from WT mice, 1 μM paclitaxel 24 h
Procedure: SGC and neuron co-culture: DRG were collected from wild-type (WT) or knock-out (KO) mice (8 weeks male) and incubated in 1 mg/ml Collagenase/Dispase (Roche Diagnostics, Madison, WI, USA) at 37° C. for 60 min, with agitation at 100 revolutions per minute (RPM) and then followed by incubation in 0.05% trypsin/EDTA for 10 min. The digestion enzymes were prepared in Dulbecco's modified Eagle medium/F12 with GlutaMAX (ThermoFisher, Waltham, MA). After incubation of 0.1% trypsin inhibitor and centrifugation (300 G), the cell pellet was gently triturated in a neurobasal medium containing […]. Dissociated DRG cells were seeded on non-coated culture dishes for 4 hrs. SGC and neurons were included for co-culture by hand-shaking of the culture flasks gently for 5 to 10 min and then resuspended by replacing with a new neurobasal medium. The attached glial-like cells were cultured in the DMEM/F12 medium containing 10% fetal bovine serum and 1% streptomycin/penicillin to promote cell growth and inhibition of differentiation. After 2 to 6 days, the glial-like cells were differentiated by application of the serum-free neural basal medium. […]

[2] = tested on: Kir4.1 potassium channels in SGCs; test: Patch-clamp recordings of K+ currents in SGCs of whole-mount DRG; type: cell-based, mouse
Procedure: Patch-clamp recordings in SGCs of whole-mount DRG: Under urethane anesthesia, mice were rapidly euthanized, followed by careful isolation of lumbar DRGs placed in the oxygenated artificial cerebral spinal fluid (aCSF). DRGs were briefly digested (20 min) using an enzymatic mixture consisting of collagenase A (1 mg/mL) and 0.32 mL Trypsin (0.25% original solution). Intact DRG were then incubated in aCSF oxygenated with 95% O2 and 5% CO2 at 34° C. Following incubation, DRG were transferred to a recording chamber. Isolated DRGs were transferred to a recording chamber continuously perfused (˜3 ml/min) with aCSF. SGCs in whole mouse DRGs could be visualized using a 40× water-immersion objective on an Olympus BX51WI microscope (Olympus Corp., Shinjuku, Japan). The round or fusiform-shaped cell bodies of SGCs were small (<10 μm) but visible near the edges of DRG neurons. Patch pipettes (Chase Scientific Glass Inc., Ramsey, MN) were pulled and filled with a pipette solution containing: 126 mM potassium gluconate, 10 mM NaCl, 1 mM MgCl2, 10 mM EGTA, 2 mM Na-ATP, and 0.1 mM Mg-GTP, adjusted to pH 7.3 with KOH. The resistance of pipettes was 10-12 MΩ. A Whole-cell patch-clamp configuration was made on SGCs at room temperature using a Multiclamp 700B amplifier (Axon Instruments, Union City, CA). Under voltage clamp, at a holding potential of −80 mV, inward or outward currents are triggered by voltage steps of −160 to +40 mV, with 20 mV increment in 200 ms (H. Zhang et al., Altered functional properties of satellite glial cells in compressed spinal ganglia. Glia 57, 1588-1599 (2009)). To isolate inwardly rectifying potassium current (Kir), potassium currents from the same cells were recorded in the absence and presence of 100 μM extracellular barium, which blocks the Kir4.1 channel (C. A. Doupnik, et al, The inward rectifier potassium channel family. Curr Opin Neurobiol 5, 268-277 (1995); X. Tong et al., Astrocyte Kir4.1 ion channel deficits contribute to neuronal dysfunction in Huntington's disease model mice. Nat Neurosci 17, 694-703 (2014)). The Kir4.1 currents were obtained by digitally subtracting those currents in the absence and presence of barium.
Kir4.1 potassium channels are the predominant potassium channels in SGCs and are chiefly responsible for the potassium currents in SGCs. Dysregulation of SGC Kir4.1 contributes to the pathogenesis of pain (M. Hanani, D. C. Spray, Emerging importance of satellite glia in nervous system function and dysfunction. Nat Rev Neurosci 21, 485-498 (2020)). SGC K^+ currents were recorded by conducting patch-clamp recordings in SGCs in whole-mount DRG preparation (data not shown; see U.S. Prov. No. 63/270,198, FIG. 7A), collected from WT mice, Gpr37l1^+/+ mice, and Gpr37l1^+/− mutant mice (FIG. 11A parts A-C).

SMILES: CC/C=C\C/C=C\C[C@H](O)\C=C/C=C/C=C/[C@H](O)C/C=C\CCC(=O)O [MaR1, Maresin 1]
- effect on paclitaxel-induced IL-1β secretion [1]: blocked
- effect on PTX-induced downregulation of K+ currents in SGCs ([2]; 100 ng/ml co-applied with PTX, Gpr37l1+/+ DRG): significantly rescued
- effect on K+ currents in SGCs ([2]; 100 ng/ml with PTX, Gpr37l1 mutant (Gpr37l1+/−) DRG): completely abolished
